According to US10894807B2 (Siemens Medical Solutions USA, Inc., priority 2011, dated 2021):

Biological target: human PSMA (Homo sapiens (Human), UniProt Q04609)
Test: Enzymatic assay for in vitro evaluation of PSMA inhibitors (fluorescent assay of PSMA activity, NAAG substrate, OPA detection of glutamate)
Assay type: biochemical

Chain of human PSMA (Q04609 whole entry): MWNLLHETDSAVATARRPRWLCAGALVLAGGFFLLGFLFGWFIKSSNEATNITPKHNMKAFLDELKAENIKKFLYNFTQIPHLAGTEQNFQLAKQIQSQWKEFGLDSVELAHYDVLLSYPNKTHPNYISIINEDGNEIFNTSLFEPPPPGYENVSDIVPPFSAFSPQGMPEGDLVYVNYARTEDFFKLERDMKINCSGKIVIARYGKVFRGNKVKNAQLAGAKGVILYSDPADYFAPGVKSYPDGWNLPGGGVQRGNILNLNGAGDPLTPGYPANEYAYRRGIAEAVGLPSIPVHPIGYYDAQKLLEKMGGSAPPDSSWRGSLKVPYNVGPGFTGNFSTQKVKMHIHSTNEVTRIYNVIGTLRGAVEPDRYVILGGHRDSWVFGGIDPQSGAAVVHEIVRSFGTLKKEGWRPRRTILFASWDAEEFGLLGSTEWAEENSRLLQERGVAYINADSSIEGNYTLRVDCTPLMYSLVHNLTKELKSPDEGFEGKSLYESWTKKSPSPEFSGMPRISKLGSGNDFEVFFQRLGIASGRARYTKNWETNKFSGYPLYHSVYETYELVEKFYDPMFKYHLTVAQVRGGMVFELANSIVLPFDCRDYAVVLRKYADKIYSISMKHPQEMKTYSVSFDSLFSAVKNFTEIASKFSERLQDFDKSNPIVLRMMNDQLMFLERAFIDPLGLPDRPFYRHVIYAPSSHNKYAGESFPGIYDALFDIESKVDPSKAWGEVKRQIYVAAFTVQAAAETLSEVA

O=C(O)CCC(Nc1c(NC(CCC(=O)O)C(=O)O)c(=O)c1=O)C(=O)O (stereo not shown) [P198, 2,2′-[(3,4-Dioxocyclobut-1-ene-1,2-diyl)bis(azanediyl)]dipentanedioic Acid]
PSMA Blkg % (10 μM): 14%

O=C(O)CC[C@H](NC(=O)C[C@@H](NC(=O)OCC1c2ccccc2-c2ccccc21)C(=O)O)C(=O)O [P199, (S)-2-[(R)-((((9H-Fluoren-9-yl)methoxy)carbonyl)amino)-3-carboxypropanamido]pentanedioic Acid]
Ki: > 188 nM | PSMA Blkg % (10 μM): 82%

O=C(O)CC[C@H](NC(=O)N[C@@H](CCCCNC(=S)Nc1ccc(-n2cc(CCCF)nn2)cc1)C(=O)O)C(=O)O [P200, (S)-2-(3-((S)-1-Carboxy-5-(3-(4-(4-(3-fluoropropyl)-1H-1,2,3-triazol-1-yl)phenyl)thioureido)pentyl)-ureido)pentanedioic Acid]
Ki: < 0.3 nM | PSMA Blkg % (10 μM): 95%

CC(C)(C)OC(=O)N1CCC[C@H]1COP(=O)(O)CC(CCC(=O)O)C(=O)O (stereo partly drawn) [P201, 2-(((((S)-1-(tert-butoxycarbonyl)pyrrolidin-2-yl)methoxy)(hydroxy)phosphoryl)methyl)-pentanedioic Acid]
Ki: > 300 nM | PSMA Blkg % (10 μM): 83%

O=C(O)CC[C@H](NC(=O)NC(Cc1ccc(OCCn2cc(CCCF)nn2)cc1)C(=O)O)C(=O)O (stereo partly drawn) [P202, (2S)-2-(3-(1-Carboxy-2-(4-(2-(4-(3-fluoropropyl)-1H-1,2,3-triazol-1-yl)ethoxy)phenyl)ethyl)ureido)pentanedioic Acid]
Ki: 94 nM | PSMA Blkg % (10 μM): 97%

O=C(O)CC[C@H](NC(=O)N[C@@H](Cc1ccc(OCCOCCOCCn2cc(CCCF)nn2)cc1)C(=O)O)C(=O)O [P203, (S)-2-(3-((S)-1-Carboxy-2-(4-(2-(2-(2-(4-(3-fluoropropyl)-1H-1,2,3-triazol-1-yl)ethoxy)ethoxy)ethoxy)phenyl)ethyl)ureido)pentanedioic Acid]
Ki: 41 nM | PSMA Blkg % (10 μM): 97%

O=C(O)CC[C@H](NC(=O)N[C@@H](COCc1ccccc1)C(=O)O)C(=O)O [P204, (S)-2-(3-((S)-2-(Benzyloxy)-1-carboxyethyl)ureido)pentanedioic Acid]
Ki: 6.9 nM | PSMA Blkg % (10 μM): 98%

O=C(O)CCC(CP(=O)(O)OC[C@@H]1CCCN1C(=O)Cc1ccccc1)C(=O)O (stereo partly drawn) [P205, 2-((Hydroxy(((S)-1-(2-phenylacetyl)pyrrolidin-2-yl)methoxy)phosphoryl)methyl)pentanedioic Acid]
PSMA Blkg % (10 μM): 79%

O=C(O)CCC(CP(=O)(O)OC[C@@H]1CCCN1C(=O)CCc1ccc(-n2cc(CCCF)nn2)cc1)C(=O)O (stereo partly drawn) [P206, 2-(((((S)-1-(3-(4-(4-(3-Fluoropropyl)-1H-1,2,3-triazol-1-yl)phenyl)propanoyl)pyrrolidin-2-yl)methoxy)(hydroxy)phosphoryl)methyl)pentanedioic Acid]
PSMA Blkg % (10 μM): 81%

O=C(O)CCC(CP(=O)(O)OC[C@@H]1CCCN1C(=O)CCCc1ccc(-n2cc(CCCF)nn2)cc1)C(=O)O (stereo partly drawn) [P207, 2-(((((S)-1-(4-(4-(4-(3-Fluoropropyl)-1H-1,2,3-triazol-1-yl)phenyl)butanoyl)pyrrolidin-2-yl)methoxy)(hydroxy)phosphoryl)methyl)pentanedioic Acid]
Ki: 18.8 nM | PSMA Blkg % (10 μM): 96%

O=C(O)CC[C@H](NC(=O)C[C@@H](NC(=O)CCCNC(=O)OCc1ccccc1)C(=O)O)C(=O)O [P208, (10R,14S)-3,8,12-Trioxo-1-phenyl-2-oxa-4,9,13-triazahexadecane-10,14,16-tricarboxylic Acid]
PSMA Blkg % (10 μM): 75%

O=C(O)CC[C@H](NC(=O)C[C@@H](NC(=O)CCCCCNC(=O)OCc1ccccc1)C(=O)O)C(=O)O [P209, (12R,16S)-3,10,14-Trioxo-1-phenyl-2-oxa-4,11,15-triazaoctadecane-12,16,18-tricarboxylic Acid]
PSMA Blkg % (10 μM): 44%

O=C(O)CC[C@H](NC(=O)C[C@@H](NC(=O)Cc1ccc(F)cc1)C(=O)O)C(=O)O [P210, (S)-2-((R)-3-Carboxy-3-(2-(4-fluorophenyl)acetamido)propanamido)pentanedioic Acid]
PSMA Blkg % (10 μM): 16%

O=C(O)CC[C@H](NC(=O)C[C@@H](NC(=O)CCCc1ccc(F)cc1)C(=O)O)C(=O)O [P211, (S)-2-((R)-3-Carboxy-3-(4-(4-fluorophenyl)butanamido)propanamido)pentanedioic Acid]
PSMA Blkg % (10 μM): 43%

O=C(O)CC[C@H](NC(=O)N[C@@H](Cc1ccc(NC(=O)Nc2ccc(-n3cc(CCCF)nn3)cc2)cc1)C(=O)O)C(=O)O [P212, (S)-2-(3-((S)-1-Carboxy-2-(4-(3-(4-(4-(3-fluoropropyl)-1H-1,2,3-triazol-1-yl)phenyl)ureido)phenyl)ethyl)ureido)pentanedioic Acid]
Ki: 3.1 nM | PSMA Blkg % (10 μM): 99%

O=C(O)CC[C@H](NC(=O)C[C@@H](NC(=O)c1ccc(F)nc1)C(=O)O)C(=O)O [P213, (S)-2-((R)-3-Carboxy-3-(6-fluoronicotinamido)propanamido)pentanedioic Acid]
PSMA Blkg % (10 μM): 33%

O=C(O)CC[C@H](NC(=O)C[C@@H](NC(=O)NCCc1ccccc1)C(=O)O)C(=O)O [P214, (S)-2-((R)-3-Carboxy-3-(3-phenethylureido)propanamido)pentanedioic Acid]
PSMA Blkg % (10 μM): 34%

O=C(O)CC[C@H](NC(=O)N[C@@H](Cc1ccc(NC(=O)c2ccc(-n3cc(CCCF)nn3)cc2)cc1)C(=O)O)C(=O)O [P215, (S)-2-(3-((S)-1-Carboxy-2-(4-(4-(4-(3-fluoropropyl)-1H-1,2,3-triazol-1-yl)-benzamido)-phenyl)ethyl)ureido)pentanedioic Acid]
Ki: 2.2 nM | PSMA Blkg % (10 μM): 99%

O=C(O)CC[C@H](NC(=O)N[C@@H](Cc1ccc(NC(=O)COCCOCCOCCn2cc(CCCF)nn2)cc1)C(=O)O)C(=O)O [P216]
Ki: 21.9 nM | PSMA Blkg % (10 μM): 98%

O=C(O)CC[C@H](NC(=O)N[C@@H](Cc1ccc(NC(=O)Cn2cc(CCCF)nn2)cc1)C(=O)O)C(=O)O [P217, (S)-2-(3-((S)-1-Carboxy-2-(4-(4-(4-(3-fluoropropyl)-1H-1,2,3-triazol-1-yl)-acetamido)-phenyl)ethyl)ureido)pentanedioic Acid]
Ki: 31.3 nM | PSMA Blkg % (10 μM): 96%

O=C(O)CC[C@H](NC(=O)N[C@@H](CCCCNc1nc(-c2ccc(-n3cc(CCCF)nn3)cc2)cs1)C(=O)O)C(=O)O [P218, (S)-2-(3-((S)-1-Carboxy-5-((4-(4-(4-(3-fluoropropyl)-1H-1,2,3-triazol-1-yl)phenyl)thiazol-2-yl)amino)pentyl)ureido)pentanedioic Acid]
Ki: 0.6 nM | PSMA Blkg % (10 μM): 98%

O=C(O)CC[C@H](NC(=O)C[C@@H](NC(=O)CCCc1ccc(-n2cc(CCCF)nn2)cc1)C(=O)O)C(=O)O [P219, (S)-2-((R)-3-Carboxy-3-(4-(4-(4-(3-fluoropropyl)-1H-1,2,3-triazol-1-yl)phenyl)butanamido)-propanamido)pentanedioic Acid]
PSMA Blkg % (10 μM): 74%

O=C(O)CC[C@H](NC(=O)C[C@@H](NC(=O)CCc1ccc(-n2cc(CCCF)nn2)cc1)C(=O)O)C(=O)O [P220, (S)-2-((R)-3-Carboxy-3-(3-(4-(4-(3-fluoropropyl)-1H-1,2,3-triazol-1-yl)phenyl)-propanamido)-propanamido)pentanedioic Acid]
PSMA Blkg % (1.0 μM): 34%

O=C(O)CC[C@H](NC(=O)C[C@@H](NC(=O)c1ccc(-n2cc(CCCF)nn2)cc1)C(=O)O)C(=O)O [P221, (S)-2-((R)-3-Carboxy-3-(4-(4-(3-fluoropropyl)-1H-1,2,3-triazol-1-yl)benzamido)propanamido)-pentanedioic Acid]
PSMA Blkg % (1.0 μM): 15%

O=C(O)CC[C@H](NC(=O)N[C@@H](Cc1ccc(NC(=O)N2CCN(C(=O)OCc3ccccc3)CC2)cc1)C(=O)O)C(=O)O [P222]
Ki: 0.56 nM | PSMA Blkg % (1.0 μM): 98%

O=C(O)CC[C@H](NC(=O)N[C@@H](Cc1ccc(NC(=O)Nc2ccc(C[C@H](NC(=O)N[C@@H](CCC(=O)O)C(=O)O)C(=O)O)cc2)cc1)C(=O)O)C(=O)O [P223, (2S,2′S)-2,2′-(((((1S,1′S)-((Carbonylbis(azanediyl))bis(4,1-phenylene))bis(1-carboxyethane-2,1-diyl))bis(azanediyl))bis(carbonyl))bis(azanediyl))dipentanedioic Acid]
Ki: 1.1 nM | PSMA Blkg % (1.0 μM): 98%

O=C(O)CC[C@H](NC(=O)N[C@@H](COC(=O)N1CCN(C(=O)OCc2ccccc2)CC1)C(=O)O)C(=O)O [P224, (S)-2-(3-((S)-2-((4-((Benzyloxy)carbonyl)piperazine-1-carbonyl)oxy)-1-carboxyethyl)ureido)pentanedioic Acid]
PSMA Blkg % (1.0 μM): 65%

O=C(O)CCC(CP(=O)(O)OCCC1CCN(C(=O)CCc2ccc(-n3cc(CCCF)nn3)cc2)CC1)C(=O)O (stereo not shown) [P225, 2-(((2-(1-(3-(4-(4-(3-Fluoropropyl)-1H-1,2,3-triazol-1-yl)phenyl)propanoyl)piperidin-4-yl)ethoxy)(hydroxy)phosphoryl)methyl)pentanedioic Acid]
PSMA Blkg % (1.0 μM): 7%

O=C(O)CCC(CP(=O)(O)OCC1CCN(C(=O)CCCc2ccc(-n3cc(CCCF)nn3)cc2)CC1)C(=O)O (stereo not shown) [P226, 2-((((1-(4-(4-(4-(3-Fluoropropyl)-1H-1,2,3-triazol-1-yl)phenyl)butanoyl)piperidin-4-yl)methoxy)(hydroxy)phosphoryl)methyl)pentanedioic Acid]
PSMA Blkg % (1.0 μM): 32%

O=C(O)CCC(CP(=O)(O)OCCC1CCN(C(=O)c2ccc(-n3cc(CCCF)nn3)cc2)CC1)C(=O)O (stereo not shown) [P227, 2-(((2-(1-(4-(4-(3-Fluoropropyl)-1H-1,2,3-triazol-1-yl)benzoyl)piperidin-4-yl)ethoxy)(hydroxy)phosphoryl)methyl)pentanedioic Acid]
PSMA Blkg % (1.0 μM): 15%

O=C(O)CC[C@H](NC(=O)C[C@@H](NC(=O)Cn1cc(CCCF)nn1)C(=O)O)C(=O)O [P228, (S)-2-((R)-3-Carboxy-3-(2-(4-(3-fluoropropyl)-1H-1,2,3-triazol-1-yl)acetamido)propanamido)-pentanedioic Acid]
PSMA Blkg % (1.0 μM): 24%

O=C(O)CC[C@H](NC(=O)C[C@@H](NC(=O)N1CCN(C(=O)OCc2ccccc2)CC1)C(=O)O)C(=O)O [P229, (S)-2-((R)-3-(4-((Benzyloxy)carbonyl)piperazine-1-carboxamido)-3-carboxypropanamido)-pentanedioic Acid]
PSMA Blkg % (1.0 μM): 25%
